Two compounds from patent US20230257372A1 (CHONG KUN DANG PHARMACEUTICAL CORP., priority 2020, published 2023) can be followed below.

One experiment has as its target T1, human recombinant HDAC6 (Homo sapiens, UniProt Q9UBN7).
T1 construct: purchased Calbiochem Inc. 382180
T1 sequence (Q9UBN7 1-1215): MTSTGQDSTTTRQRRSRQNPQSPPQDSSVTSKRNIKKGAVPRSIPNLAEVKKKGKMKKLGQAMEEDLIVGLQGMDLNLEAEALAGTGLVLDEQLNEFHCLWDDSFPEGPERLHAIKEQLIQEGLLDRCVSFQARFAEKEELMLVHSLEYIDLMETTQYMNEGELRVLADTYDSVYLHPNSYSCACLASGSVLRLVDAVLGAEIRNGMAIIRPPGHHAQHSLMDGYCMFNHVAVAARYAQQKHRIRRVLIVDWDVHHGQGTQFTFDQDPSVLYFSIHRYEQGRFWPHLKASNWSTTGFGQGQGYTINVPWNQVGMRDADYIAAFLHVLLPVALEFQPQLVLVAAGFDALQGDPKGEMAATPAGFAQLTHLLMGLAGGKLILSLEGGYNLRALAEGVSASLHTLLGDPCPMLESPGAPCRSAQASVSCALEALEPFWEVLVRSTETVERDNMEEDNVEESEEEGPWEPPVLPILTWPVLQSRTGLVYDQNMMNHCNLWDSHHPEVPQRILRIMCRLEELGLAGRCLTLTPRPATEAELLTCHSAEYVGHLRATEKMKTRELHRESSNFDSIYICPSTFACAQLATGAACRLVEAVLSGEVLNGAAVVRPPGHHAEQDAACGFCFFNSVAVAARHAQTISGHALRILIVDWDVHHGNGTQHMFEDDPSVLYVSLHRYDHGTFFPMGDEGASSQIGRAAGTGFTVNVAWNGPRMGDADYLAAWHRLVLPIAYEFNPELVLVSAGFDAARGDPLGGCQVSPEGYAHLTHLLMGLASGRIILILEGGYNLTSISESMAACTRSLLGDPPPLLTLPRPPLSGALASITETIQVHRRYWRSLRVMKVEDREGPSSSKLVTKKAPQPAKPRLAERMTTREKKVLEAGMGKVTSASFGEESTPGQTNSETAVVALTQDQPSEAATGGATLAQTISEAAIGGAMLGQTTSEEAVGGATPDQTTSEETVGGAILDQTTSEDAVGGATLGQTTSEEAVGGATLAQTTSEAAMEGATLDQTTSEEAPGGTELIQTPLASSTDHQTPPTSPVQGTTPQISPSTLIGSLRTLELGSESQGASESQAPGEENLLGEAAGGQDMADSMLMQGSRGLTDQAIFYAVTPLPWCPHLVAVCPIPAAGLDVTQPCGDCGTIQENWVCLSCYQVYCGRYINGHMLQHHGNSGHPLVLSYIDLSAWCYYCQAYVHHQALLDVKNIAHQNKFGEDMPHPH
The experiment is described as follows: HDAC6 enzyme activity inhibition (HDAC Fluorimetric Drug Discovery Kit). It is filed as biochemical. As to conditions: for HDAC6 selectivity (fold): HDAC6 over HDAC1; for IC50: human recombinant HDAC6, same protocol as HDAC1. The gist of the method:
(§1)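 Five-fold compound dilutions incubated with […] recombinant enzyme and 10 μM fluorogenic Fluor de Lys substrate, 60 min at 30° C. Fluor de Lys Developer II then added for 30 min to generate the fluorescent read-out.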

The target in the next experiment is T2, human recombinant HDAC1 (Homo sapiens, UniProt Q13547).
T2 construct: purchased Enzo Life Science, Inc. BML-SE456
Briefly: HDAC1 enzyme activity inhibition (HDAC Fluorimetric Drug Discovery Kit). It is filed as biochemical. As to conditions: human recombinant HDAC1, Fluor de Lys substrate, 30° C. 60 minutes; read-out: HDAC1. Put shortly:
as §1

The test system of experiment [1] is hippocampal neurons from a Sprague-Dawley (SD) rat fetus. The experiment is described as follows: Effect of HDAC6-specific inhibitor on axonal transport of mitochondria in amyloid-beta treated neurons. It is filed as cell-based. As to conditions: transport velocity of mitochondria in neuronal axon after normalization; vehicle = 100%, amyloid beta treatment group = 0%; compound treatment for three hours. The gist of the method:
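Rat E17-18 hippocampal neurons exposed to amyloid-beta fragments […]; after 24 h (day 8 in vitro) compound added for 3 h, mitochondria stained with MitoTracker Red CMXRos. Confocal imaging every 1 s for 1 min gave per-mitochondrion velocity, normalized vehicle = 100%, amyloid-beta = 0%.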

T2 sequence (Q13547 whole entry): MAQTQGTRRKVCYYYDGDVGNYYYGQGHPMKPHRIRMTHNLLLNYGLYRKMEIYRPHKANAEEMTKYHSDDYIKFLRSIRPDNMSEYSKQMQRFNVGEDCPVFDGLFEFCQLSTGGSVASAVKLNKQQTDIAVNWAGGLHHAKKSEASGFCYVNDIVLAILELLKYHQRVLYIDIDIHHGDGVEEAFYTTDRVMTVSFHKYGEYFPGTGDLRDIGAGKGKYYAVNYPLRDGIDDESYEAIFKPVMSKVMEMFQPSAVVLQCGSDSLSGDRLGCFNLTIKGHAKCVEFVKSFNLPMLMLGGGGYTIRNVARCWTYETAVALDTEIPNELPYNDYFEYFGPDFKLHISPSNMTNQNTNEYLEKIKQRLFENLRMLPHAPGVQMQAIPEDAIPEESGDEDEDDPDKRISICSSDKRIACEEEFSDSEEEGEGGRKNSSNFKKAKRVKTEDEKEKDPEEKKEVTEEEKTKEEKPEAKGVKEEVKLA

Turning to `Fc1cc(-c2nnc(C(F)F)o2)cnc1Cn1cc(-c2ccc(CN3CCC3)s2)nn1` [Compound 18309, 2-(6-((4-(5-(azetidin-1-ylmethyl)thiophen-2-yl)-1H-1,2,3-triazol-1-yl)methyl)-5-fluoropyridin-3-yl)-5-(difluoromethyl)-1,3,4-oxadiazole], the “HDAC6 selectivity (fold)” value at human recombinant HDAC6 is given as 1160 fold. Besides, the IC50 is 43.1 nM on human recombinant HDAC6 and more than 50000 nM at human recombinant HDAC1. The “Velocity distribution (%)” value in experiment [1] was “** (**, 50%˜100%)”.
On to `Fc1cc(-c2nnc(C(F)F)o2)cnc1Cn1cc(-c2cccc3[nH]ncc23)nn1` [Compound 19058, 2-(6-((4-(1H-indazol-4-yl)-1H-1,2,3-triazol-1-yl)methyl)-5-fluoropyridin-3-yl)-5-(difluoromethyl)-1,3,4-oxadiazole], for which, at human recombinant HDAC6, the “HDAC6 selectivity (fold)” value is listed as 2304 fold and the IC50 was 21.7 nM. Besides, the IC50 at human recombinant HDAC1 is more than 50000 nM. Further, the “Velocity distribution (%)” value in experiment [1] was “*** (***, >100%)”.
